Results published in PubChem BioAssay (NCI).
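Results reflect a 48-hour exposure of cells in 96-well plates to compound at five concentrations. At the GI50, growth is halved. At the TGI there is no net growth.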

Columns and labels:
Experiment in all cases: NCI anticancer screen, dose series, 48 h; in the data active means GI50 below about 0.43 µM; inactive means the rest
HCT-15 colon = tested on: HCT-15 colon
SNB-19 CNS = tested on: SNB-19 CNS
CCRF-CEM leukemia = tested on: CCRF-CEM leukemia
KM12 colon = tested on: KM12 colon
OVCAR-3 ovarian = tested on: OVCAR-3 ovarian
UO-31 renal = tested on: UO-31 renal
NCI-H522 lung = tested on: NCI-H522 lung
SF-539 CNS = tested on: SF-539 CNS
HS 578T breast = tested on: HS 578T breast
LOX IMVI melanoma = tested on: LOX IMVI melanoma
HL-60(TB) leukemia = tested on: HL-60(TB) leukemia
MDA-MB-231 breast = tested on: MDA-MB-231 breast
MCF7 breast = tested on: MCF7 breast
OVCAR-8 ovarian = tested on: OVCAR-8 ovarian
SF-268 CNS = tested on: SF-268 CNS
SF-295 CNS = tested on: SF-295 CNS
786-0 renal = tested on: 786-0 renal
COLO 205 colon = tested on: COLO 205 colon
SK-MEL-28 melanoma = tested on: SK-MEL-28 melanoma
HCT-116 colon = tested on: HCT-116 colon
SK-OV-3 ovarian = tested on: SK-OV-3 ovarian
SN12C renal = tested on: SN12C renal
HOP-62 NSCLC = tested on: HOP-62 NSCLC
ACHN renal = tested on: ACHN renal
A498 renal = tested on: A498 renal
HOP-92 NSCLC = tested on: HOP-92 NSCLC
RXF 393 renal = tested on: RXF 393 renal
SW-620 colon = tested on: SW-620 colon
M14 melanoma = tested on: M14 melanoma
RPMI-8226 leukemia = tested on: RPMI-8226 leukemia
DU-145 prostate = tested on: DU-145 prostate
CAKI-1 renal = tested on: CAKI-1 renal
BT-549 breast = tested on: BT-549 breast
SK-MEL-5 melanoma = tested on: SK-MEL-5 melanoma
T-47D breast = tested on: T-47D breast
HT29 colon = tested on: HT29 colon
A549 NSCLC = tested on: A549 NSCLC
MDA-MB-435 = tested on: MDA-MB-435
EKVX NSCLC = tested on: EKVX NSCLC
UACC-62 melanoma = tested on: UACC-62 melanoma
TK-10 renal = tested on: TK-10 renal
U251 CNS = tested on: U251 CNS
PC-3 prostate = tested on: PC-3 prostate
OVCAR-4 ovarian = tested on: OVCAR-4 ovarian
SR leukemia = tested on: SR leukemia
K-562 leukemia = tested on: K-562 leukemia
SNB-75 CNS = tested on: SNB-75 CNS
SK-MEL-2 melanoma = tested on: SK-MEL-2 melanoma
NCI-H226 lung = tested on: NCI-H226 lung
MOLT-4 leukemia = tested on: MOLT-4 leukemia
UACC-257 melanoma = tested on: UACC-257 melanoma
IGROV1 ovarian = tested on: IGROV1 ovarian
NCI-H460 lung = tested on: NCI-H460 lung
HCC-2998 colon = tested on: HCC-2998 colon
NCI-H23 lung = tested on: NCI-H23 lung
NCI/ADR-RES ovarian = tested on: NCI/ADR-RES ovarian
OVCAR-5 ovarian = tested on: OVCAR-5 ovarian
MALME-3M melanoma = tested on: MALME-3M melanoma

O=C(NCc1ccc(Cl)cc1Cl)c1ccc(NC2=C(Cl)C(=O)N(Cc3ccccc3)C2=O)cc1
27.8 µM: TGI (HOP-92 NSCLC)
39.8 µM: TGI (UACC-62 melanoma)
40.3 µM: TGI (OVCAR-4 ovarian)
23.9 µM: TGI (MOLT-4 leukemia)
91.4 µM: TGI (TK-10 renal)
> 100 µM: TGI (HCT-15 colon) | TGI (SNB-19 CNS) | TGI (KM12 colon) | TGI (OVCAR-3 ovarian) | TGI (UO-31 renal) | TGI (NCI-H522 lung) | TGI (LOX IMVI melanoma) | TGI (SF-295 CNS) | TGI (786-0 renal) | TGI (SK-MEL-28 melanoma) | TGI (HCT-116 colon) | TGI (SK-OV-3 ovarian) | TGI (HOP-62 NSCLC) | TGI (SW-620 colon) | TGI (M14 melanoma) | TGI (DU-145 prostate) | TGI (T-47D breast) | TGI (HT29 colon) | TGI (A549 NSCLC) | TGI (MDA-MB-435) | TGI (EKVX NSCLC) | TGI (SK-MEL-2 melanoma) | TGI (NCI-H226 lung) | TGI (UACC-257 melanoma) | TGI (IGROV1 ovarian)
47 µM: TGI (NCI-H460 lung)
75.5 µM: TGI (SN12C renal)
66.7 µM: TGI (SK-MEL-5 melanoma)
34.2 µM: TGI (U251 CNS) | TGI (SNB-75 CNS)
39.1 µM: TGI (SF-539 CNS)
52.4 µM: TGI (CAKI-1 renal)
49.1 µM: TGI (SF-268 CNS)
42 µM: TGI (BT-549 breast)
52.7 µM: TGI (HS 578T breast)
55.9 µM: TGI (MDA-MB-231 breast)
inactive: GI50 (HCT-15 colon) 32.4 µM | GI50 (SNB-19 CNS) 44.1 µM | GI50 (CCRF-CEM leukemia) 1.41 µM | GI50 (KM12 colon) 38.4 µM | GI50 (OVCAR-3 ovarian) 31.9 µM | GI50 (UO-31 renal) 3.41 µM | GI50 (NCI-H522 lung) 24.6 µM | GI50 (SF-539 CNS) 21.3 µM | GI50 (HS 578T breast) 23.4 µM | GI50 (LOX IMVI melanoma) 7.02 µM | GI50 (HL-60(TB) leukemia) 14.8 µM | GI50 (MDA-MB-231 breast) 21.1 µM | GI50 (MCF7 breast) 11.9 µM | GI50 (OVCAR-8 ovarian) 12 µM | GI50 (SF-268 CNS) 18.9 µM | GI50 (SF-295 CNS) 32.8 µM | GI50 (786-0 renal) 30.1 µM | GI50 (COLO 205 colon) 23.3 µM | GI50 (SK-MEL-28 melanoma) 41.6 µM | GI50 (HCT-116 colon) 53.5 µM | GI50 (SK-OV-3 ovarian) 57.5 µM | GI50 (SN12C renal) 26.7 µM | GI50 (HOP-62 NSCLC) 36.3 µM | GI50 (ACHN renal) 20.8 µM | GI50 (A498 renal) 28.1 µM | GI50 (HOP-92 NSCLC) 10.6 µM | GI50 (RXF 393 renal) 18.7 µM | GI50 (SW-620 colon) 26.9 µM | GI50 (M14 melanoma) 58.7 µM | GI50 (RPMI-8226 leukemia) 4.45 µM | GI50 (DU-145 prostate) 39.9 µM | GI50 (CAKI-1 renal) 18.2 µM | GI50 (BT-549 breast) 20.3 µM | GI50 (SK-MEL-5 melanoma) 24 µM | GI50 (T-47D breast) 51.3 µM | GI50 (HT29 colon) 54.3 µM | GI50 (A549 NSCLC) 36 µM | GI50 (MDA-MB-435) 33.4 µM | GI50 (EKVX NSCLC) 36.4 µM | GI50 (UACC-62 melanoma) 18.4 µM | GI50 (TK-10 renal) 28.7 µM | GI50 (U251 CNS) 15.7 µM | GI50 (PC-3 prostate) 14.3 µM | GI50 (OVCAR-4 ovarian) 18.5 µM | GI50 (SR leukemia) 0.734 µM | GI50 (K-562 leukemia) 9.98 µM | GI50 (SNB-75 CNS) 17.8 µM | GI50 (SK-MEL-2 melanoma) 78.8 µM | GI50 (NCI-H226 lung) 26.8 µM | GI50 (MOLT-4 leukemia) 7.17 µM | GI50 (UACC-257 melanoma) 61 µM | GI50 (IGROV1 ovarian) 15.8 µM | GI50 (NCI-H460 lung) 17.8 µM
7.65 µM: TGI (CCRF-CEM leukemia)
48.9 µM: TGI (MCF7 breast)
44.5 µM: TGI (RPMI-8226 leukemia)
26.5 µM: TGI (OVCAR-8 ovarian)
31.9 µM: TGI (PC-3 prostate)
30.9 µM: TGI (K-562 leukemia)
52.6 µM: TGI (RXF 393 renal)
60.8 µM: TGI (HL-60(TB) leukemia)
2.55 µM: TGI (SR leukemia)
56.8 µM: TGI (A498 renal)
48.1 µM: TGI (ACHN renal)
66.5 µM: TGI (COLO 205 colon)

CCOC(=O)c1sc2nc(SC)nc3c2c1NCN3C1CC1
> 100 µM: TGI (HCT-15 colon) | TGI (SNB-19 CNS) | TGI (CCRF-CEM leukemia) | TGI (KM12 colon) | TGI (OVCAR-3 ovarian) | TGI (UO-31 renal) | TGI (HS 578T breast) | TGI (LOX IMVI melanoma) | TGI (MDA-MB-231 breast) | TGI (OVCAR-8 ovarian) | TGI (SF-268 CNS) | TGI (SF-295 CNS) | TGI (786-0 renal) | TGI (COLO 205 colon) | TGI (SK-MEL-28 melanoma) | TGI (HCT-116 colon) | TGI (SK-OV-3 ovarian) | TGI (SN12C renal) | TGI (HOP-62 NSCLC) | TGI (ACHN renal) | TGI (A498 renal) | TGI (HOP-92 NSCLC) | TGI (RXF 393 renal) | TGI (HCC-2998 colon) | TGI (NCI-H23 lung) | TGI (M14 melanoma) | TGI (RPMI-8226 leukemia) | TGI (DU-145 prostate) | TGI (NCI/ADR-RES ovarian) | TGI (CAKI-1 renal) | TGI (OVCAR-5 ovarian) | TGI (BT-549 breast) | TGI (SK-MEL-5 melanoma) | TGI (T-47D breast) | TGI (HT29 colon) | TGI (A549 NSCLC) | TGI (MDA-MB-435) | TGI (UACC-62 melanoma) | TGI (TK-10 renal) | TGI (U251 CNS) | TGI (PC-3 prostate) | TGI (OVCAR-4 ovarian) | TGI (SNB-75 CNS) | TGI (MALME-3M melanoma) | TGI (SK-MEL-2 melanoma) | TGI (NCI-H226 lung) | TGI (UACC-257 melanoma) | TGI (IGROV1 ovarian) | TGI (NCI-H460 lung)
